In patent US20080004253A1, “Thiazolopyrimidine modulators of TRPV1” (priority 2006, published 2008) one finds IC50 data, which are given here for 22 molecules.

Molecules are shown by their SMILES.

In one experiment the target is T1, human TRPV1 (Homo sapiens, UniProt Q8NER1).
T1 construct: expressed in transfected cells; host or cells: HEK293 (hTRPV1/HEK293), zeocin selection
Description: Functional assay: block of capsaicin-induced Ca2+ influx, human assay (hTRPV1/HEK293, FLIPR). The experiment is classed as cell-based. To be noted: hTRPV1/HEK293 cells, 150 nM capsaicin challenge, Fluo-3 fluorescence; mean; > value = solubility limit in assay medium. The gist of the method: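 HEK293 cells stably expressing human TRPV1, fluo3-loaded, preincubated 30 min with compound (serial 3-fold dilutions from 10 μM, duplicate) in 20 μM Ca2+ buffer. Capsaicin response taken as fluo3 fluorescence change before vs 100 s after agonist; IC50 by non-linear regression, mean values; free base or TFA salt.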

Another experiment has as its target T2, rat TRPV1 (Rattus norvegicus, UniProt O35433).
T2 construct: expressed in transfected cells; host or cells: HEK293 (rTRPV1/HEK293), geneticin selection
Description: Functional assay: block of capsaicin-induced Ca2+ influx, rat assay (rTRPV1/HEK293, FLIPR). To be noted: rTRPV1/HEK293 cells, capsaicin challenge, Fluo-3 fluorescence; mean; > value = solubility limit in assay medium. Type of experiment: cell-based. An outline of the steps:
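Compounds, as free base or TFA salt, tested from 10 μM in three-fold steps on rTRPV1-transfected HEK293 cells, with 30 min preincubation in low-calcium (20 μM) buffer. Capsaicin-evoked Ca2+ influx measured by FLIPR fluo3 signal before and 100 s after addition. Averaged IC50 from non-linear fits.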

T2 sequence (O35433 whole entry): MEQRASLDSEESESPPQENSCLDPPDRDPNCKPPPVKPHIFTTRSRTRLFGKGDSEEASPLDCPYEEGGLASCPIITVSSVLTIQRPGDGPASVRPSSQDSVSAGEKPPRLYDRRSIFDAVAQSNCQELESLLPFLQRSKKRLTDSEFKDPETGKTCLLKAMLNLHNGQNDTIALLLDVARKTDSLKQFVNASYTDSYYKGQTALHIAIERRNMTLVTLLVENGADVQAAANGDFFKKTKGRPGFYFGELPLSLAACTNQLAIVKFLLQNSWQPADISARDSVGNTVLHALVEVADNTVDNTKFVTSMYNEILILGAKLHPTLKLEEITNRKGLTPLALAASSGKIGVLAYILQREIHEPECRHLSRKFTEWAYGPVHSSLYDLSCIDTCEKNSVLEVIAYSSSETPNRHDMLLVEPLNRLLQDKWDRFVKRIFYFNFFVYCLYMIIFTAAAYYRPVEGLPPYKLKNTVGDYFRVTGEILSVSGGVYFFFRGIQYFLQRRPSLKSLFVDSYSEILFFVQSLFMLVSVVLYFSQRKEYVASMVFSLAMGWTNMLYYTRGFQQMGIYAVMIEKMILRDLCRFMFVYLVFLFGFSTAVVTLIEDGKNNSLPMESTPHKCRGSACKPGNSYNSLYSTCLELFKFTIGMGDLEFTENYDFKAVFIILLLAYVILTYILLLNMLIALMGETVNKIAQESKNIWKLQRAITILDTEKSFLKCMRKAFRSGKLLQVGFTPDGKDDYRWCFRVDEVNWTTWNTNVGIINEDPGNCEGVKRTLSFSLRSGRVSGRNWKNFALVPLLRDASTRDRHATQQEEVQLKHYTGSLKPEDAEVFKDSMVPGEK
T1 sequence (Q8NER1 whole entry): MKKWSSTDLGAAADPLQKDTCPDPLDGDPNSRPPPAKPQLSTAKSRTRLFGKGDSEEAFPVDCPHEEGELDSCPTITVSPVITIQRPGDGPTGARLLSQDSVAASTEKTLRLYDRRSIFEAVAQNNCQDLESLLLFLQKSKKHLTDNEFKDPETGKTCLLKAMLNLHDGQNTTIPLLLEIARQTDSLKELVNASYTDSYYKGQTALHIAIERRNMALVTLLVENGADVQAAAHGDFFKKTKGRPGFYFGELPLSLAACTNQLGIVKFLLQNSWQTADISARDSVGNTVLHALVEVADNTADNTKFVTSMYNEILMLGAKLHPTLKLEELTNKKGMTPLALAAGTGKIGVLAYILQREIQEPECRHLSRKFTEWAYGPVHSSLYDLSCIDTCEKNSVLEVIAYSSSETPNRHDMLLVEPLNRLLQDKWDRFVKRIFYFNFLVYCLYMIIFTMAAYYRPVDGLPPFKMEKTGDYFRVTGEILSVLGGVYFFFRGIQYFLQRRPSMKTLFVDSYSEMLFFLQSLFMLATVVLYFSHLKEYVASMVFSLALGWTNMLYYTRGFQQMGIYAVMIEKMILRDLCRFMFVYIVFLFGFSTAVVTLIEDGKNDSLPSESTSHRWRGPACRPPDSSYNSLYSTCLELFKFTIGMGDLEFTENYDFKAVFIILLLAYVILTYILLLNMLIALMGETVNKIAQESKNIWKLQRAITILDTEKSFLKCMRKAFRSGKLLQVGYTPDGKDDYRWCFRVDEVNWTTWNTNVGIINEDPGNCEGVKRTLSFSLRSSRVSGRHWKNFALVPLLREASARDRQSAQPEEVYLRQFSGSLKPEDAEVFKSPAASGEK

The term IC50 denotes the point on the concentration scale where inhibition reaches its midpoint. A high value points to a need for much substance. On to `CC(C)(C(=O)O)c1ccc(Nc2ncnc3sc(Nc4c(Cl)cccc4Cl)nc23)cc1` [Example 230, 2-[4-({2-[(2,6-Dichlorophenyl)amino][1,3]thiazolo[5,4-d]pyrimidin-7-yl}amino)phenyl]-2-methylpropanoic acid], for which the IC50 against human TRPV1 came to 43 nM; on rat TRPV1, 2 nM.

Take `COC(=O)c1scc(C)c1Nc1nc2c(Nc3ccc(C(F)(F)F)cc3)ncnc2s1` [Example 48, 4-Methyl-3-[7-(4-trifluoromethyl-phenylamino)-thiazolo[5,4-d]pyrimidin-2-ylamino]-thiophene-2-carboxylic acid methyl ester]: the IC50 at human TRPV1 stood at 207 nM; against rat TRPV1, 202 nM.

As for `Cc1ccc(Nc2nc(C)nc3sc(Nc4c(C)cccc4C)nc23)cc1` [Example 138, N^2-(2,6-Dimethyl-phenyl)-5-methyl-N^7-p-tolyl-thiazolo[5,4-d]pyrimidine-2,7-diamine], the IC50 was determined as 271 nM at human TRPV1 and 128 nM against rat TRPV1.

Take `Cc1cccc(C)c1Nc1nc2c(Nc3ccc4c(c3)OCCO4)ncnc2s1` [Example 150, N^7-(2,3-Dihydro-benzo[1,4]dioxin-6-yl)-N^2-(2,6-dimethyl-phenyl)-thiazolo[5,4-d]pyrimidine-2,7-diamine]: the IC50 against human TRPV1 was 937 nM; against rat TRPV1, 204 nM.

For the molecule `OCc1cc(Cl)c(Nc2nc3c(Nc4ccc(C(F)(F)F)cc4)ncnc3s2)c(Cl)c1` [Example 242, {3,5-Dichloro-4-[7-(4-trifluoromethyl-phenylamino)-thiazolo[5,4-d]pyrimidin-2-ylamino]-phenyl}-methanol], the IC50 on human TRPV1 and on rat TRPV1 was 1 nM throughout.

As to `CC(C)(C#N)c1ccc(Nc2ncnc3sc(Nc4c(Cl)cccc4Cl)nc23)cc1` [Example 228, 2-[4-({2-[(2,6-Dichlorophenyl)amino][1,3]thiazolo[5,4-d]pyrimidin-7-yl}amino)phenyl]-2-methylpropanenitrile], the IC50 against human TRPV1 is 101 nM; on rat TRPV1, 98 nM.

On to `Cc1cccc(C)c1Nc1nc2c(Nc3ccc(C(C)(C)C#N)cc3)ncnc2s1` [Example 32, 2-{4-[2-(2,6-Dimethyl-phenylamino)-thiazolo[5,4-d]pyrimidin-7-ylamino]-phenyl}-2-methyl-propionitrile], for which the IC50 against human TRPV1 came out at 51 nM; on rat TRPV1, 8 nM.

As for `Cc1nc(Nc2ccc(C(F)(F)F)cc2)c2nc(Nc3ncccc3C)sc2n1` [Example 211, 5-Methyl-N^2-(3-methyl-pyridin-2-yl)-N^7-(4-trifluoromethyl-phenyl)-thiazolo[5,4-d]pyrimidine-2,7-diamine], the IC50 against human TRPV1 and against rat TRPV1 was no less than 6670 nM each time.

Take `Cc1noc(C)c1Nc1nc2c(Nc3ccc(C(C)(C)C#N)cc3)ncnc2s1` [Example 223, 2-[4-({2-[(3,5-Dimethylisoxazol-4-yl)amino][1,3]thiazolo[5,4-d]pyrimidin-7-yl}amino)phenyl]-2-methylpropanenitrile]: the IC50 came to 169 nM against human TRPV1 and 95 nM on rat TRPV1.

Take `NC(=O)c1cc(Cl)c(Nc2nc3c(Nc4ccc(C(F)(F)F)cc4)ncnc3s2)c(Cl)c1` [Example 235, 3,5-Dichloro-4-[7-(4-trifluoromethyl-phenylamino)-thiazolo[5,4-d]pyrimidin-2-ylamino]-benzamide]: the IC50 on human TRPV1 amounted to 90 nM; at rat TRPV1 it was 61 nM.

On to `Cc1nc(Nc2ccc(S(=O)(=O)N3CCCC3)cc2)c2nc(Nc3c(Cl)cccc3Cl)sc2n1` [Example 73, N^2-(2,6-Dichloro-phenyl)-5-methyl-N^7-[4-(pyrrolidine-1-sulfonyl)-phenyl]-thiazolo[5,4-d]pyrimidine-2,7-diamine], for which the IC50 against human TRPV1 and against rat TRPV1 was 1 nM throughout.

Consider `Cc1nc(Nc2cccnc2)c2nc(Nc3c(Cl)cccc3Cl)sc2n1` [Example 166, N^2-(2,6-Dichloro-phenyl)-5-methyl-N^7-pyridin-3-yl-thiazolo[5,4-d]pyrimidine-2,7-diamine], for which the IC50 against human TRPV1 and against rat TRPV1 was greater than 6670 nM throughout.

With `Cc1nc(Nc2ccc(C(C)C)cc2)c2nc(Nc3c(Cl)cccc3Cl)sc2n1` [Example 84, N^2-(2,6-Dichloro-phenyl)-N^7-(4-isopropyl-phenyl)-5-methyl-thiazolo[5,4-d]pyrimidine-2,7-diamine], the IC50 against human TRPV1 worked out at 4 nM; on rat TRPV1 it was 2 nM.

Regarding `Cc1cccc(C)c1Nc1nc2c(NCc3ccc(Cl)c(Cl)c3)ncnc2s1` [Example 39, N^7-(3,4-Dichloro-benzyl)-N^2-(2,6-dimethyl-phenyl)-thiazolo[5,4-d]pyrimidine-2,7-diamine], the IC50 against human TRPV1 and against rat TRPV1 was greater than 6670 nM each time.

On to `Cc1cccc(C)c1Nc1nc2c(Nc3ccc(I)cc3)ncnc2s1` [Example 137, N^2-(2,6-Dimethyl-phenyl)-N^7-(4-iodo-phenyl)-thiazolo[5,4-d]pyrimidine-2,7-diamine], for which the IC50 at human TRPV1 stood at 225 nM; at rat TRPV1, 48 nM.

Consider `Cc1cccc(C)c1Nc1nc2c(Nc3ccc(C#N)nc3)ncnc2s1` [Example 29, 5-[2-(2,6-Dimethyl-phenylamino)-thiazolo[5,4-d]pyrimidin-7-ylamino]-pyridine-2-carbonitrile], for which the IC50 was found to be 207 nM at human TRPV1 and 178 nM against rat TRPV1.

Turning to `NCc1cc(Cl)c(Nc2nc3c(Nc4ccc(C(F)(F)F)cc4)ncnc3s2)c(Cl)c1` [Example 240, N^2-(4-Aminomethyl-2,6-dichloro-phenyl)-N^7-(4-trifluoromethyl-phenyl)-thiazolo[5,4-d]pyrimidine-2,7-diamine], the IC50 against human TRPV1 was found to be 154 nM; at rat TRPV1 it was 61 nM.

As for `Cc1ccc(Nc2ncnc3sc(Nc4c(C)cccc4C)nc23)cc1O` [Example 160, 5-[2-(2,6-Dimethyl-phenylamino)-thiazolo[5,4-d]pyrimidin-7-ylamino]-2-methyl-phenol], the IC50 at human TRPV1 is 2990 nM; at rat TRPV1, greater than 6670 nM.

For `Cc1cccc(C)c1Nc1nc2c(Nc3ccc(C(F)(F)F)nc3)ncnc2s1` [Example 11, N^2-(2,6-Dimethyl-phenyl)-N^7-(6-trifluoromethyl-pyridin-3-yl)-thiazolo[5,4-d]pyrimidine-2,7-diamine], the IC50 worked out at 23 nM on human TRPV1 and 7 nM against rat TRPV1.

With `Cc1cccc(C)c1Nc1nc2c(NC3CCC(C(C)(C)C)CC3)ncnc2s1` (single isomer, unassigned) [Example 248, N^7-(4-tert-Butyl-cyclohexyl)-N^2-(2,6-dimethyl-phenyl)-thiazolo[5,4-d]pyrimidine-2,7-diamine], the IC50 on human TRPV1 was 1100 nM; at rat TRPV1, 240 nM.

Consider `Cc1nc(Nc2ccc(N(S(C)(=O)=O)S(C)(=O)=O)cc2)c2nc(Nc3c(Cl)cccc3Cl)sc2n1` [Example 173, N-{4-[2-(2,6-Dichloro-phenylamino)-5-methyl-thiazolo[5,4-d]pyrimidin-7-ylamino]-phenyl}-dimethanesulfonamide], for which the IC50 against human TRPV1 and against rat TRPV1 was greater than 6670 nM in each case.

`CC1CCCN1c1nc(Nc2ccc(C(F)(F)F)cc2)c2nc(Nc3c(Cl)cccc3Cl)sc2n1` (racemic) [Example 105, (racemic)-N^2-(2,6-Dichloro-phenyl)-5-(2-methyl-pyrrolidin-1-yl)-N^7-(4-trifluoromethyl-phenyl)-thiazolo[5,4-d]pyrimidine-2,7-diamine]: the IC50 stood at 24 nM against human TRPV1 and 17 nM against rat TRPV1.
